Measured values as given in patent US8163509B2, “Biological markers predictive of anti-cancer response to insulin-like growth factor-1 receptor kinase inhibitors” (The Regents of the University of Colorado, A Body Corporate, priority 2008, dated 2012).
Where two headings read alike, the source gives them in different places.

Tests used:
Assay in all cases: SRB proliferation assay, 72 h
LS1034 CRC cell line = assay type: cell-based; conditions: Homo sapiens
Experimental: (§1) FIG. 17: Results of cell proliferation assay on the panel of 27 CRC cell lines. Cell proliferation was evaluated by SRB following exposure to OSI-906 for 72 hours. Cells were plated at an optimized density in 96-well plates, incubated overnight at 37° C., and then exposed to a serial dilution of OSI-906. After 72 hours incubation, cells were fixed with trichloroacetic acid and an SRB was performed as described in materials and methods.
(§2) Cell Lines and Culture. […] human colon cancer cell lines, were obtained from American Type Culture Collection (Manassas, Va.). Cells were grown in RPMI medium supplemented with 10% fetal bovine serum, 1% non-essential amino acids, 1% penicillin/streptomycin and were maintained at 37° C. in an incubator under an atmosphere containing 5% CO2. The cells were routinely screened for the presence of mycoplasma (MycoAlert, Cambrex Bio Science, Baltimore, Md.) and were exposed to PQIP when they reached approximately 70% confluence.
(§3) The CRC cell lines were treated with a range of concentrations of PQIP (from 0.05-5 μM) for 72 hours.
(§4) Cell Lines and Culture: Twenty-seven human colon cancer cell lines, were obtained from American Type Culture Collection (Manassas, Va.). The GEO cells were a generous gift from Dr. Fortunato Ciardiello (Cattedra di Oncologia Medica, Dipartimento Medico-Chirurgico di Internistica Clinica e Sperimentale “F Magrassi e A Lanzara,” Seconda Università degli Studi di Napoli, Naples). All cells except GEO were grown in RPMI medium supplemented with 10% fetal bovine serum, 1% non-essential amino acids, 1% penicillin/streptomycin and were maintained at 37° C. in an incubator under an atmosphere containing 5% CO2. GEO cells were grown in DMEM/F12 supplemented with 10% fetal bovine serum, 1% non-essential amino acids, 1% penicillin/streptomycin. The cells were routinely screened for the presence of mycoplasma (MycoAlert, Cambrex Bio Science, Baltimore, Md.) and were exposed to OSI-906 when they reached approximately 70% confluence. OSI-906 was provided by OSI Pharmaceuticals, (Boulder, Colo.) and prepared as a 10 mM stock solution in DMSO.
(§5) Assessment of responsiveness of a panel of CRC cell lines to OSI-906. In order to assess CRC cell lines with differential sensitivity to OSI-906, a panel of 27 CRC cell lines were exposed to increasing concentrations of OSI-906 and proliferation was measured using the SRB assay as described previously (Pitts, T M, et al. Mol Cancer Ther 2009; 8(2):342-9). As depicted in FIG. 17 there was a wide range of sensitivity of the CRC cell lines to OSI-906, the majority of the cell lines failing to reach an IC50 up to 5 μmol/L, but a clear distinction could be made between the cell lines that were sensitive and the cell lines that were resistant.

LoVo CRC cell line = assay type: cell-based; conditions: Homo sapiens
Experimental: as §1, §2, §3, §4, §5

SW1417 CRC cell line = assay type: cell-based; conditions: Homo sapiens
Experimental: as §1, §2, §3, §4, §5

SW948 CRC cell line = assay type: cell-based; conditions: Homo sapiens
Experimental: as §1, §2, §3, §4, §5

LS123 CRC cell line = assay type: cell-based; conditions: Homo sapiens
Experimental: as §1, §2, §3, §4, §5

SW48 CRC cell line = assay type: cell-based; conditions: Homo sapiens
Experimental: as §1, §2, §3, §4, §5

HCT8 CRC cell line = assay type: cell-based; conditions: Homo sapiens
Experimental: as §1, §2, §3, §4, §5

CaCo2 CRC cell line = assay type: cell-based; conditions: Homo sapiens
Experimental: as §1, §2, §3, §4, §5

LS174T CRC cell line = assay type: cell-based; conditions: Homo sapiens
Experimental: as §1, §2, §3, §4, §5

Colo201 CRC cell line = assay type: cell-based, human; conditions: for IC50: Homo sapiens, COLO 201
Experimental: as §1, §2, §3, §4, §5

SW620 CRC cell line = assay type: cell-based, human; conditions: for IC50: Homo sapiens
Experimental: as §1, §2, §3, §4, §5

SK-CO-1 CRC cell line = assay type: cell-based, human; conditions: for IC50: Homo sapiens
Experimental: as §1, §2, §3, §4, §5

[1] = 72 hours, read-out: IC50, proliferation, OSI-906 (SRB)
[2] = 72 hours, 0.05-5 μM, read-out: IC50, growth inhibition by PQIP (SRB)

C[C@]1(O)C[C@@H](c2nc(-c3ccc4ccc(-c5ccccc5)nc4c3)c3c(N)nccn32)C1 [OSI-906, cis-3-[8-amino-1-(2-phenyl-quinolin-7-yl)-imidazo[1,5-a]pyrazin-3-yl]-1-methyl-cyclobutanol]
IC50 (LS1034 CRC cell line; LS-1034, 72 hours, read-out: IC50, proliferation, OSI-906 (SRB)): ≤ 1.5 µM | IC50 (LS1034 CRC cell line; LS-1034, read-out: S/I/R to OSI-906): ≤ 1.5 µM | IC50 (LoVo CRC cell line; [1]): > 5 µM | IC50 (LoVo CRC cell line; read-out: S/I/R to OSI-906): > 5 µM | IC50 (SW1417 CRC cell line; [1]): > 5 µM | IC50 (SW1417 CRC cell line; read-out: S/I/R to OSI-906): > 5 µM | IC50 (SW948 CRC cell line; [1]): > 5 µM | IC50 (SW948 CRC cell line; read-out: S/I/R to OSI-906): > 5 µM | IC50 (LS123 CRC cell line; LS-123, 72 hours, read-out: IC50, proliferation, OSI-906 (SRB)): > 5 µM | IC50 (LS123 CRC cell line; LS-123, read-out: S/I/R to OSI-906): > 5 µM | IC50 (SW48 CRC cell line; [1]): > 5 µM | IC50 (SW48 CRC cell line; read-out: S/I/R to OSI-906): > 5 µM | IC50 (HCT8 CRC cell line; HCT-8, 72 hours, read-out: IC50, proliferation, OSI-906 (SRB)): > 5 µM | IC50 (HCT8 CRC cell line; HCT-8, read-out: S/I/R to OSI-906): > 5 µM | IC50 (CaCo2 CRC cell line; Caco-2, 72 hours, read-out: IC50, proliferation, OSI-906 (SRB)): ≤ 1.5 µM | IC50 (CaCo2 CRC cell line; Caco-2, read-out: S/I/R to OSI-906): ≤ 1.5 µM | IC50 (LS174T CRC cell line; [1]): > 5 µM | IC50 (LS174T CRC cell line; read-out: S/I/R to OSI-906): > 5 µM | IC50 (Colo201 CRC cell line; CoLo201, read-out: S/I/R to OSI-906): > 5 µM | IC50 (Colo201 CRC cell line; Colo201, 72 hours, read-out: IC50, proliferation, OSI-906 (SRB)): > 5 µM | IC50 (SW620 CRC cell line; SW-620, 72 hours, read-out: IC50, proliferation, OSI-906 (SRB)): > 5 µM | IC50 (SW620 CRC cell line; SW-620, read-out: S/I/R to OSI-906): > 5 µM | IC50 (SK-CO-1 CRC cell line; [1]): > 5 µM | IC50 (SK-CO-1 CRC cell line; read-out: S/I/R to OSI-906): > 5 µM

CN1CCN([C@H]2C[C@@H](c3nc(-c4ccc5ccc(-c6ccccc6)nc5c4)c4c(N)nccn43)C2)CC1 [PQIP, cis-3-[3-(4-Methyl-piperazin-1-yl)-cyclobutyl]1-(2-phenyl-quinolin-7-yl)-imidazo[1,5-a]pyrazin-8-ylamine]
IC50 (LS1034 CRC cell line; LS-1034, 72 hours, 0.05-5 μM, read-out: IC50, growth inhibition by PQIP (SRB)): > 5 µM | IC50 (LoVo CRC cell line; [2]): > 5 µM | IC50 (SW1417 CRC cell line; [2]): > 5 µM | IC50 (SW948 CRC cell line; [2]): > 5 µM | IC50 (LS123 CRC cell line; LS-123, 72 hours, 0.05-5 μM, read-out: IC50, growth inhibition by PQIP (SRB)): > 5 µM | IC50 (SW48 CRC cell line; [2]): > 5 µM | IC50 (HCT8 CRC cell line; HCT-8, 72 hours, 0.05-5 μM, read-out: IC50, growth inhibition by PQIP (SRB)): > 5 µM | IC50 (CaCo2 CRC cell line; Caco-2, 72 hours, 0.05-5 μM, read-out: IC50, growth inhibition by PQIP (SRB)): > 5 µM | IC50 (LS174T CRC cell line; [2]): > 5 µM | sensitivity to growth inhibition by PQIP (SRB) (Colo201 CRC cell line; Colo201, 72 hours, 0.05-5 μM): intermediate sensitivity | sensitivity to growth inhibition by PQIP (SRB) (SW620 CRC cell line; 72 hours, 0.05-5 μM): intermediate sensitivity | sensitivity to growth inhibition by PQIP (SRB) (SK-CO-1 CRC cell line; 72 hours, 0.05-5 μM): intermediate sensitivity
